Test results from PubChem BioAssay (NCI).
“And” between values parts separate entries of the source, which are not always exact repeats. Equal entries are not always repeated.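 Following 48 hours of exposure in 96-well plates, responses at five concentrations were used to interpolate endpoints linearly. GI50: concentration for 50% inhibition of growth. TGI: concentration producing complete growth inhibition.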

Assays:
Assay in all cases: inhibition of tumour cell growth, NCI panel, 48 h
OVCAR-4 ovarian = system: OVCAR-4 ovarian
SK-MEL-2 melanoma = system: SK-MEL-2 melanoma
T-47D breast = system: T-47D breast
M14 melanoma = system: M14 melanoma
SF-268 CNS = system: SF-268 CNS
MDA-MB-435 = system: MDA-MB-435
HCT-15 colon = system: HCT-15 colon
U251 CNS = system: U251 CNS
OVCAR-8 ovarian = system: OVCAR-8 ovarian
MDA-MB-231 breast = system: MDA-MB-231 breast

Row | Compound | GI50 (OVCAR-4 ovarian) [µM] | TGI (OVCAR-4 ovarian) [µM] | GI50 (SK-MEL-2 melanoma) | TGI (SK-MEL-2 melanoma) | GI50 (T-47D breast) | TGI (T-47D breast) [µM] | GI50 (M14 melanoma) | TGI (M14 melanoma) | GI50 (SF-268 CNS) | TGI (SF-268 CNS) [µM] | GI50 (MDA-MB-435) | TGI (MDA-MB-435) | GI50 (HCT-15 colon) | TGI (HCT-15 colon) | GI50 (U251 CNS) | TGI (U251 CNS) | GI50 (OVCAR-8 ovarian) | TGI (OVCAR-8 ovarian) | GI50 (MDA-MB-231 breast) | TGI (MDA-MB-231 breast)
1 | CC(=O)C1=C(O)C=C2Oc3c(C(=O)/C=C/c4c(Cl)cccc4Cl)c(O)c(C)c(O)c3[C@]2(C)C1=O | 3.19 | 11.3 | 0.64 µM | 2.87 µM | 0.38 µM | 2.41 | 0.961 µM | 3.83 µM | 0.856 µM | 3.73 | 1.81 µM | 3.82 µM | 0.668 µM | 2.94 µM | 0.754 µM | 4.09 µM | 0.533 µM | 2.06 µM | 1.3 µM | 5.72 µM
2 | COc1cc(-c2cc(O)c(-c3ccc4ccccc4n3)c(=O)[nH]2)cc(OC)c1OC | – | > 53.6 | – | > 78.9 µM | – | > 100 | – | > 95.2 µM | – | > 80.5 | – | 11.6 µM | – | > 100 µM | – | > 48.2 µM | – | > 54.9 µM | – | > 70.2 µM
3 | CC(C)=CCC[C@](C)(O)[C@H]1CC[C@]2(C)[C@@H]1CC[C@@H]1[C@@]3(C)CC/C(=N/O)C(C)(C)[C@@H]3CC[C@]12C | 13.9 | > 100 | 15.3 µM | 60.5 µM | 2.86 µM | 88.1 | 16.3 µM | > 100 µM | 21.5 µM | > 100 | 21.4 µM | > 100 µM | 10.6 µM | > 100 µM | 12.8 µM | 49.4 µM | 12 µM | 86.2 µM | 9.95 µM | 37.4 µM
4 | Cc1nc(-c2cn3c(n2)-c2ccc(-c4cnn(C(C)(C)C(N)=O)c4)cc2OCC3)n(C(C)C)n1 | – | > 10 | 4.25 µM and 4.74 µM | 24.2 µM and > 10 µM | < 0.0384 µM and 0.00372 µM | – | 3.24 µM and 3.57 µM | 26 µM and > 10 µM | 3.7 µM and 2.29 µM | > 100 | 2.31 µM and 2.67 µM | 26.2 µM and > 10 µM | 0.219 µM and 0.314 µM | 39.9 µM and > 10 µM | 0.68 µM and 1.51 µM | 25.4 µM and > 10 µM | 3.38 µM and 5.87 µM | 75.9 µM and > 10 µM | 6.44 µM and 4.11 µM | 35.9 µM and > 10 µM
5 | Cc1nc2ccccc2c(/C=C/c2ccc(Cl)cc2)c1C(=O)/C=C/c1ccc(C(F)(F)F)cc1 | 1.26 | 2.61 | 0.627 µM | 2.17 µM | 0.299 µM | 1.46 | 0.41 µM | 1.88 µM | 0.872 µM | 2.78 | 0.243 µM | 0.655 µM | 0.179 µM | 0.599 µM | 0.264 µM | 0.865 µM | 0.433 µM | 2.2 µM | 0.301 µM | 0.947 µM
6 | C/C(=N\NS(=O)(=O)c1ccc(C)cc1)P(=O)(O)O | – | > 100 | – | > 100 µM | – | > 100 | – | > 100 µM | – | > 100 | – | > 100 µM | – | > 100 µM | – | > 100 µM | – | > 100 µM | – | > 100 µM
7 | CCN(CC)CCCNCc1cc(-c2ccccc2)nc2ccccc12 | 6.91 | > 100 | 10.2 µM | 22.9 µM | 10.2 µM | 59.6 | 4.63 µM | 14.4 µM | 4.72 µM | > 100 | 4.47 µM | 24.3 µM | 3.24 µM | 45.8 µM | 4.16 µM | 19.4 µM | 3.21 µM | 10.6 µM | 3.99 µM | 24 µM
